The assay deals with WT ELIC. The assay is described as follows: Fluorescence stopped-flow liposomal Tl+ flux assay, symmetric liposomes. Format: biochemical, Erwinia chrysanthemi. On the procedure: The fluorescence sequential-mixing stopped-flow liposomal flux measurements were carried using an SX20 stopped-flow spectrofluorometer (Applied Photophysics) and Pro-Data SX software[13],[30]. 7.5 mg of the respective lipid mixture (POPC, 1:1 POPC: POPE, 1:1 POPC:POPG, 3:1 POPC:POPE, 3:1 POPC:POPG, 2:1:1 POPC:POPE:POPG) was dried in a glass vial to a thin film under a constant stream of N2. The lipids were then further dried under vacuum in a desiccator overnight. The following day the lipids were hydrated in 500 µl of reconstitution buffer (100 mM NaNO3, 10 mM HEPES, pH 7) (Buffer R), 250 µl of 75 mM 8-Aminonaphthalene-1,3,6-Trisulfonic Acid (ANTS, ThermoFisher Scientific) in buffer R, and doped with ~18 mg of CHAPS (Anatrace). The mixture was vortexed and then sonicated with heat until completely solubilized. Following the sonication, the solution was brought to RT then 3.5 µl of 6.7 mg/ml ELIC in Buffer A with 0.02% DDM was added (3 µg per mg of lipid). This combined solution was incubated at RT for 30 min, followed by the addition of 1 ml of 1:1 v/v SM-2 BioBeads in Buffer R and an additional 250 µl of 75 mM ANTS in Buffer R. This mixture was incubated at RT for 2.5 hr with gentle mixing. The liposome suspension was then extruded with an Avanti mini-extruder and 0.1 µm membrane (30×). The extruded liposomes were stored at 13 °C overnight with gentle rotation. The next day, the liposomes were diluted to 2.5 mL using assay buffer (140 mM NaNO3, 10 mM HEPES, pH 7) (Stopped-flow Buffer A), loaded into a PD-10 desalting column (Cytiva), eluted with 3 mL of Stopped-flow Buffer A and subsequently diluted 5-fold with Stopped-flow Buffer A.
Using propylamine as the agonist, the assay and analysis was carried out as previously described[13],[30]. ELIC-containing liposomes were first mixed 1:1 with Buffer A containing 2× the concentration of propylamine. After a variable delay of 10 ms to 25 s, the sample was then mixed 1:1 with a quenching buffer (90 mM NaNO3, 50 mM TlNO3, 10 mM HEPES, pH 7), and ANTS fluorescence (ex. 360 nm, fluorescence above 420 nm) was recorded for 1 s. For each delay time, 5 repeat measurements were obtained. The data were collected using Applied Photophysics Pro-Data SX software. The fluorescence quenching traces were fit to a stretched exponential (Eq. 2a) and the rate of Tl^+ influx was determined at 2 ms (Eq. 2b).2a Ft=F∞+F0−F∞⋅e^−t/τ^β 2b kt=β/τ⋅2ms/τ^(β−1) where Ft, F∞, F0 are the fluorescence at time t, final fluorescence and initial fluorescence. τ is the time constant, β the stretched exponential factor, and kt the calculated rate of Tl^+ influx at 2 ms. The time course of desensitization was also fit to a double exponential and a weighted time constant was calculated as was done for the patch-clamp data using Origin 2019b. All replicates were taken from independent samples.

Turning to `CCCCCCCC/C=C\CCCCCCCC(=O)OC(COC(=O)CCCCCCCCCCCCCCC)COP(=O)(O)OCC(O)CO` (stereo not drawn) [POPG, 1-palmitoyl-2-oleoyl-phosphatidylglycerol], the “time constant of desensitization” value (25% POPG in symmetric liposomes) was ~ 6 s and the “time constant of desensitization” value (50% POPG in symmetric liposomes) was ~ 12 s. In addition, the effect on desensitization result (25–50 mol% in binary mixtures with POPC, 10 mM propylamine) was “slowed desensitization”.

(Values after article PMC9668969 (Nature Communications, 2022).)
